The subject of experiment [1] is differentiated human airway epithelia. In words: Transepithelial resistance of KGF-treated airway epithelia with Ca2+ chelators. The experiment is classed as cell-based. How it is done: Differentiated epithelial cells were treated with 100 ng/ml KGF for 24 hr. Different concentrations of each calcium chelator in HEPES/HCl (pH 7.4) or in isotonic HEPES/saline (pH 7.4) buffer were mixed with vector buffer and applied to the apical surface for times as specified (Wang et al., 1998). Transepithelial resistance was measured with an Ohmmeter (EVOM; World Precision Instruments, Inc. Sarasota, Fla.) by adding cell culture media to the apical surface and the values were compared to untreated controls.
To understand whether the tonicity of the vector solution affects epithelial permeability and gene transfer efficiency, hypotonic (40 mmol/kg) or isotonic (220 mmol/kg) solutions of 6 mM EGTA, EDTA or BAPTA were added to the MuLV vector buffer and applied to the apical surface of differentiated airway epithelial cells pre-treated with KGF. At specific time intervals, transepithelial resistance (R1) was measured using an Ohmmeter.

A further experiment concerns human nasal epithelium. In words: Nasal transepithelial voltage (Vt) in human volunteers. The experiment is classed as in vivo. Conditions: human, in vivo. How it is done: Human studies. The Vt across the nasal epithelium was measured in 6 volunteers using previously described methods (Zabner et al., 1996). The protocol followed was identical to that described above for the rabbit studies. […] The catheter was then left in that position for the entire recording period. The solutions were administered through the second lumen in the following order: 1) Normal saline for 5 min; 2) Sterile water with 10 mM EGTA or 10 mM EDTA for 10 min; 3) Nommal saline with 10 mM EGTA or 10 mM EDTA for 5 min; and 4) Normal saline with 10 mM, EGTA or 10 mM EDTA plus […] amiloride for 5 min. Measurements of Vt were read by two investigators who were blinded and wvere checked by a third investigator if there was a discrepancy of more than 2 mV. Disruption of epithelial junctions was assessed by detecting a fall in nasal Vt after perfusion with the chelator, and by the loss of amiloride-sensitive Vt after perfusion with the. chelator solution.

The subject of experiment [2] is rabbit tracheal epithelium. In words: Tracheal transepithelial voltage (Vt) in anesthetized rabbits. The experiment is classed as in vivo. Conditions: rabbit, in vivo. How it is done: Rabbit studies. The transepithelial electrical potential difference across the rabbit tracheal epithelium (Vt) was measured using a modification of previously described methods (Zabner et al., 1996). The reference electrode was a subcutaneous needle connected with sterile normal saline solution to a silver/silver chloride pellet. Adult New Zealand white rabbits (n=4/group) were anesthetized with 32 mg/kg ketamine, 5.1 mg/kg xylazine and 0.8 mg/kg acepromazine intramuscularly and placed with the head in the dependent position. An exploring electrode (pediatric size 8 Teflon-coated latex double lumen Foley catheter, modified Ruseh, Inc., Duluth, Ga.) was inserted into the tracheal lumen via a tracheotomy incision. One lumen of the catheter was filled with sterile normal saline solution and was connected to a silver/silver chloride pellet. Voltage was measured with a voltmeter connected to a strip chart recorder. The catheter was then left in that position for the entire recording period. The solutions were administered through the second lumen in the following order: 1) Normal saline for 5 min; 2) Sterile water with 10 mM EGTA for 10 min; 3) Normal saline with 10 mM EGTA for 5 min; and 4) Normal saline with 10 mM EGTA plus 100 μM amiloride for 5 min. Measurements of Vt were read by two investigators who were blinded to the treatment received. There wre no discrepancies in readings of greater than 2 mV between the investigators. Disruption of epithelial junctions was assessed by detecting a fall in […] Vt after perfusion with the chelator, and by the loss of amiloride-sensitive Vt after perfusion with the chelator solution.

In experiment [3] the test system is human airway epithelia. In words: BrdU labeling of differentiated human airway epithelia. The experiment is classed as cell-based. Conditions: for BrdU incorporation versus control epithelia: EGF 200 ng/ml, heregulin 5 nM. The method, then: BrdU immunohistochemistry. BrdU labeling and immunostaining was performed using a kit from Zymed Laboratories Inc. (South San Francisco, Calif.). In studies that investigate the effects of growth factors, the cells may be treated with 50-100 ng/ml growth factor for 36 h. A 1:100 dilution of the BrdU labeling reagent was added to the culture media and cells labeled for 4 hours followed by fixation in 10% neutralized Formalin. BrdU histochemistry was performed following the methods of the Zymed BrdU kit. Labeled nuclei stained brown under these conditions. Epithelial cell preparations were examined microscopically en face or in cross sections of paraffin embedded membranes and the percentage of brown staining nuclei determined. Hematoxylin or 4′,6-diamidino-2-phenylindole, dibydrochloride (DAPI) (Molecular Probes, Eugene, Oreg.) were used for counterstains.
To determine whether growth factors are mitogenic to human airway epithelia, primary cultures of cells grown at the air-liquid interface were utilized. These cultures have ion transport properties and morphology similar to the intact surface epithelium (Smith et al., 1996; Kondo et al., 1991) and after 14 days in culture the cells are well-differentiated, ciliated, and have ion transport properties similar to the intact airways (Zabner et al., 1996; Yamaya et al., 1992). […] After 24 hours of growth factor treatment, growth factor administration doubles the monolayer cell number compared to control. HGF treatment (200 ng/ml) increased cell labeling to 17-36%, while 5-10% of untreated controls were BrdU positive (n=3).

For experiment [4], the system named is differentiated human airway epithelial cells. The class given is cell-based. Conditions: 5 μM AZT at addition of FIV-βgal vector/EGTA to apical surface.
In experiment [5] the test system is human airway epithelia. In words: [3H] thymidine incorporation in primary cultures of human airway epithelia. The class given is cell-based. Conditions: 200 ng/ml HGF. In general terms: Uptake of a labelled nucleoside into DNA is a usual measure of proliferation.
Experiment [6] concerns differentiated human airway epithelia. The class given is cell-based.

On to `O=C(O)CN(CC(=O)O)c1ccccc1OCCOc1ccccc1N(CC(=O)O)CC(=O)O` [BAPTA], for which the “fall of R1, isotonic solution” value in experiment [1] (6 mM, isotonic) is listed as “quickly dropped R1, similar to the hypotonic solutions”.
For the compound `N=C(N)NC(=O)c1nc(Cl)c(N)nc1N` [amiloride], the “nasal Vt response to amiloride in control studies” value in the experiment on human nasal epithelium is recorded as “there was a significant fall in Vt with amiloride treatment”. Also, the “Vt response to amiloride in control tracheas perfused with saline” value in experiment [2] was “the anticipated fall in Vt in response to perfusion with amiloride”.
As to EGF: epidermal growth factor, the “BrdU incorporation versus control epithelia” value with human airway epithelia [3] is listed as “increased BrdU incorporation over control epithelia”.
In the case of `Cc1cn([C@H]2C[C@H](N=[N+]=[N-])[C@@H](CO)O2)c(=O)[nH]c1=O` [AZT, 3′-azido-3′ deoxythymidine], the “expression of vector encoded product (pseudotransduction control)” value in experiment [4] is given as “showed no significant expression of vector encoded product”.
For heregulin, the “BrdU incorporation versus control epithelia” value in the experiment on human airway epithelia [3] is reported as “increased BrdU incorporation over control epithelia”.
As for `O=C(O)CN(CCN(CC(=O)O)CC(=O)O)CC(=O)O` [EDTA], the “time required to decrease R1 to ~20% of the controls” value in experiment [1] (6 mM chelator, isotonic (220 mmol/kg)) is “Sixty”.
For the compound “HGF: Hepatocyte growth factor, mitogen for pulmonary epithelia”, the “stimulation of cell division measured by [3H] thymidine incorporation” value in the experiment on human airway epithelia [5] worked out at 3 fold. In the experiment with human airway epithelia [3] (HGF 200 ng/ml, untreated controls 5-10% BrdU positive, n=3), the BrdU cell labeling is 17-36%.
`O` [water]: the effect on proliferation entry in experiment [6] (application of H2O or EGTA to epithelia, control studies) was “had no effect on proliferation”. In addition, the “epithelia expressing β-gal” value in experiment [6] (pretreated with water alone, vector to mucosal surface, mean±SE, n=13) is on record as 3±0.5%.
